Results taken from ChEMBL document CHEMBL1255194, “A stereo-controlled synthesis of 2,4-dimethyl-4-hydroxy-16-phenylhexadecanoic acid 1,4-lactone and its PPAR activities” (Bioorg Med Chem Lett, 2010).

How the values were obtained:
[1] = target: T1, Peroxisome proliferator-activated receptor alpha (Mus musculus, UniProt P23204); experiment: Transactivation of mouse PPARalpha expressed in CV1 cells; type: cell-based, CV-1
T1 sequence (P23204 whole entry): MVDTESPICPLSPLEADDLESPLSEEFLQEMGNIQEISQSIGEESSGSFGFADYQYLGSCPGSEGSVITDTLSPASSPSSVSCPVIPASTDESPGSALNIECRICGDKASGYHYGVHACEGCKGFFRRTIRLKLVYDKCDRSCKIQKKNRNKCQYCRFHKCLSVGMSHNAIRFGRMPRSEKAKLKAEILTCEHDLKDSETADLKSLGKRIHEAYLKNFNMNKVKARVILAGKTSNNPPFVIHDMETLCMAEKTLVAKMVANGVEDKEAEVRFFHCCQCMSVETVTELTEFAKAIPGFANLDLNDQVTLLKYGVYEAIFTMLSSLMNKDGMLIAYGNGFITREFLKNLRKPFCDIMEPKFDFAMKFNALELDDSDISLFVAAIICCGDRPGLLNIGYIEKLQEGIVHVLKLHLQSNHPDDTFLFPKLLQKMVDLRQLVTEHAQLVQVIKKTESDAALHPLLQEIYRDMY

[2] = target: T2, Peroxisome proliferator-activated receptor delta (Mus musculus, UniProt P35396); experiment: Transactivation of mouse PPARdelta expressed in CV1 cells; type: cell-based, CV-1
T2 sequence (P35396 whole entry): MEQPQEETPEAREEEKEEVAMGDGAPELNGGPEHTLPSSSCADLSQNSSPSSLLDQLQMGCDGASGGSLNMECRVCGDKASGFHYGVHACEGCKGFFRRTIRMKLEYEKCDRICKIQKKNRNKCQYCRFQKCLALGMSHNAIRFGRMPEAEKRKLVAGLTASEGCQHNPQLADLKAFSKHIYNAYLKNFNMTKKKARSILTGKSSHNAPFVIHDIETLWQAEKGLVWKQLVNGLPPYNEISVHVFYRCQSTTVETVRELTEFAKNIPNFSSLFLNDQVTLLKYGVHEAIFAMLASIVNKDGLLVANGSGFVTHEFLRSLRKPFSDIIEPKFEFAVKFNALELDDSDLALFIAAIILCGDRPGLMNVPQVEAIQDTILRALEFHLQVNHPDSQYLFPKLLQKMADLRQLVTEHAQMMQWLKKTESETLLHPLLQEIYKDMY

[3] = target: T3, Peroxisome proliferator-activated receptor gamma (Mus musculus, UniProt P37238); experiment: Transactivation of mouse PPARgamma expressed in CV1 cells at 100 uM; type: cell-based; conditions: cv-1
T3 sequence (P37238 whole entry): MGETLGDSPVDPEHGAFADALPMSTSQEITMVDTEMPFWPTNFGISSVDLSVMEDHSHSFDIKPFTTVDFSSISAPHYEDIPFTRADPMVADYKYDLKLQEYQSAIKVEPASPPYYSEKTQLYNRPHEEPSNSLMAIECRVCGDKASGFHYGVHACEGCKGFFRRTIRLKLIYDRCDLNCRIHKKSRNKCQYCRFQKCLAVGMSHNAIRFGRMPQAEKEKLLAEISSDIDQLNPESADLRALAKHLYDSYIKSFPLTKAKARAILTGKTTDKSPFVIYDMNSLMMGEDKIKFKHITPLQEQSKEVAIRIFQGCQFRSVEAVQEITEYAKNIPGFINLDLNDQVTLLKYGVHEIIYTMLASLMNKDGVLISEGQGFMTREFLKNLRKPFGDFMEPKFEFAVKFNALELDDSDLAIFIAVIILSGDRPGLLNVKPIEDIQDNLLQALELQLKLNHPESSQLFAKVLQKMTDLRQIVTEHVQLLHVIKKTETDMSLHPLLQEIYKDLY

Row | Structure (SMILES) | EC50 [1] | EC50 [2] | EC50 [3] | EC50 ([2]; cv-1)
1 | C[C@@H]1C[C@](C)(CCCCCCCCCCCCc2ccccc2)OC1=O | 39 µM | 34 µM | Not Active | 
2 | C[C@@H]1C[C@@](C)(CCCCCCCCCCCCc2ccccc2)OC1=O | 12 µM | 9 µM | Not Active | 
3 | C[C@H]1C[C@@](C)(CCCCCCCCCCCCc2ccccc2)OC1=O (stereo in doubt; 1a) | 20 µM |  |  | 22 µM
4 | C[C@H]1C[C@](C)(CCCCCCCCCCCCc2ccccc2)OC1=O (stereo in doubt; (+)-1c) | 25 µM | 24 µM |  | 

Other lines, results leading:

Row | EC50 [1] | EC50 [2] | EC50 [3] | EC50 ([2]; cv-1) | Structure (SMILES)
5 | 13 µM | 16 µM | Not Active |  | C[C@H]1C[C@](C)(CCCCCCCCCCCCc2ccccc2)OC1=O (stereo in doubt)
6 | 24 µM | 22 µM | Not Active |  | C[C@H]1C[C@@](C)(CCCCCCCCCCCCc2ccccc2)OC1=O (stereo in doubt)
